{"source": "patent US8287934B2", "about": "“Use of diacetyl dimer as an aromatic and/or flavouring substance” (Symrise AG, priority 2006, dated 2012)", "key": {"[1]": {"assay": "Stability on heating and in formulations", "format": "physicochemical", "settings": "for decomposition when heated: heated at 60° C. to 100° C. for 10 minutes"}, "[2]": {"assay": "Tasting in sweet/salty solution (flavour profile by testers)", "format": "in vivo", "experimental": "The actions found were evaluated with a scale of from 1 (action scarcely perceptible) to 9 (action highly perceptible).\nThe 5-acetyl-2,5-dimethyl-2-hydroxy-tetrahydrofuran-3-one from Example 1 (2 ppm diacetyl dimer of formula (I) in aqueous 5 wt. % sucrose or 0.5% sodium chloride solution) was investigated for its flavouring action by 9 testers.\nThe 2,5-diacetyl-3a,5,6,6a-tetrahydro-6a-hydroxy-2,3a,5-trimethylfuro[2,3-d]-1,3-dioxole from Example 1a (1 ppm diacetyl trimer of formula (II) in aqueous 5 wt. % sucrose or 0.5% sodium chloride solution) was investigated for its flavouring action by 9 testers.\nThe aromatic and/or flavouring composition containing diacetyl dimer of formula (I) and diacetyl trimer of formula (II) from example (1b) (1 ppm of the composition in aqueous 5 wt. % sucrose or 0.5% sodium chloride solution) was investigated for its flavouring action by 7 testers.\nFor comparison, a flavour profile of diacetyl (1 ppm in aq. 5% sucrose or 0.5% sodium chloride solution) was produced under otherwise identical conditions: fatty (oily) (5), cream (5), butter (7), milk (4), condensed milk (4), fruity (2), cheesy (2), sweet (4), vanillin (2), intensity (7), impact (7), fullness (7), adhesive (5), soft (6)."}, "[3]": {"settings": "2 ppm in aqueous 5 wt. % sucrose or 0.5% sodium chloride solution, scale 1 to 9"}, "[4]": {"settings": "1 ppm in aqueous 5 wt. % sucrose or 0.5% sodium chloride solution, scale 1 (scarcely perceptible) to 9 (highly perceptible)"}, "[5]": {"settings": "1 ppm in aqueous 5 wt. % sucrose or 0.5% sodium chloride solution, scale 1 to 9"}, "[6]": {"settings": "1 ppm in aq. 5% sucrose or 0.5% sodium chloride solution, scale 1 to 9"}}, "data": [{"smiles": "CC(=O)C1(C)CC(=O)C(C)(O)O1", "note": "(racemic) [diacetyl dimer of formula (I), 5-acetyl-2,5-dimethyl-2-hydroxy-tetrahydrofuran-3-one]", "values": [{"measurement": "decomposition when heated", "setting": "[1]", "result": "does not decompose"}, {"measurement": "stability in formulations compared with diacetyl", "setting": "[1]; nutrition, oral hygiene, luxury product or oral pharmaceutical formulations, in particular acidic or basic pH-value", "result": "significantly more stable than diacetyl"}, {"measurement": "flavour profile: cream", "setting": "[2]; 2 ppm in aqueous 5 wt. % sucrose or 0.5% sodium chloride solution, scale 1 (scarcely perceptible) to 9 (highly perceptible)", "result": 5}, {"measurement": "flavour profile: butter", "setting": "[2]; [3]", "result": 5}, {"measurement": "flavour profile: caramel", "setting": "[2]; [3]", "result": 3}, {"measurement": "flavour profile: fullness", "setting": "[2]; [3]", "result": 6}, {"measurement": "flavour profile: intensity", "setting": "[2]; [3]", "result": 5}, {"measurement": "flavour profile: soft", "setting": "[2]; [3]", "result": 6}, {"measurement": "flavour profile: sweet", "setting": "[2]; [3]", "result": 5}, {"measurement": "flavour profile: toffee", "setting": "[2]; [3]", "result": 4}, {"measurement": "flavour profile: vanillin", "setting": "[2]; [3]", "result": 3}]}, {"smiles": "CC(=O)C1(C)CC2(O)OC(C)(C(C)=O)OC2(C)O1", "note": "(racemic) [diacetyl trimer of formula (II), 2,5-diacetyl-3a,5,6,6a-tetrahydro-6a-hydroxy-2,3a,5-trimethylfuro[2,3-d]-1,3-dioxole]", "values": [{"measurement": "decomposition when heated", "setting": "[1]", "result": "does not decompose"}, {"measurement": "flavour profile: fatty (oily)", "setting": "[2]; [4]", "result": 7}, {"measurement": "flavour profile: adhesive", "setting": "[2]; [5]", "result": 8}, {"measurement": "flavour profile: butter", "setting": "[2]; [5]", "result": 8}, {"measurement": "flavour profile: caramel", "setting": "[2]; [5]", "result": 4}, {"measurement": "flavour profile: cream", "setting": "[2]; [5]", "result": 6}, {"measurement": "flavour profile: fresh cheese/quark", "setting": "[2]; [5]", "result": 4}, {"measurement": "flavour profile: fullness", "setting": "[2]; [5]", "result": 7}, {"measurement": "flavour profile: impact", "setting": "[2]; [5]", "result": 7}, {"measurement": "flavour profile: intensity", "setting": "[2]; [5]", "result": 6}, {"measurement": "flavour profile: soft", "setting": "[2]; [5]", "result": 6}, {"measurement": "flavour profile: sweet", "setting": "[2]; [5]", "result": 6}, {"measurement": "flavour profile: toffee", "setting": "[2]; [5]", "result": 6}, {"measurement": "flavour profile: vanillin", "setting": "[2]; [5]", "result": 3}]}, {"smiles": "CC(=O)C(C)=O", "note": "[diacetyl, 2,3-butanedione]", "values": [{"measurement": "flavour profile: cheesy", "setting": "[2]; [6]", "result": 2}, {"measurement": "flavour profile: condensed milk", "setting": "[2]; [6]", "result": 4}, {"measurement": "flavour profile: fruity", "setting": "[2]; [6]", "result": 2}, {"measurement": "flavour profile: milk", "setting": "[2]; [6]", "result": 4}, {"measurement": "flavour profile: fatty (oily)", "setting": "[2]; [4]", "result": 5}, {"measurement": "flavour profile: adhesive", "setting": "[2]; [5]", "result": 5}, {"measurement": "flavour profile: butter", "setting": "[2]; [5]", "result": 7}, {"measurement": "flavour profile: cream", "setting": "[2]; [5]", "result": 5}, {"measurement": "flavour profile: fullness", "setting": "[2]; [5]", "result": 7}, {"measurement": "flavour profile: impact", "setting": "[2]; [5]", "result": 7}, {"measurement": "flavour profile: intensity", "setting": "[2]; [5]", "result": 7}, {"measurement": "flavour profile: soft", "setting": "[2]; [5]", "result": 6}, {"measurement": "flavour profile: sweet", "setting": "[2]; [5]", "result": 4}, {"measurement": "flavour profile: vanillin", "setting": "[2]; [5]", "result": 2}]}]}
